In US9440941B2, “Substituted chroman-6-yloxy-cycloalkanes and their use as pharmaceuticals” (SANOFI, priority 2013, dated 2016):
Structures can show the parent of a compound that is named as a salt.

Target: T1, human NCX1 (Homo sapiens, UniProt P32418)
T1 construct: expressed in transfected cells
Test: Inhibition of Ca2+ influx into cells (NCX1 reverse mode), FLIPR Fluo-4 assay
Assay type: cell-based
Settings: inhibition of NCX1 in reverse mode (Ca2+ influx into cells); read-out: NCX1rv IC50
Excerpt: The sodium/calcium exchanger NCX1 can transport calcium ions and sodium ions through the cell membrane. The transport is an exchange of Ca^2+ and Na^+ in two directions depending on membrane potential and ion gradients. At the first direction, named “forward mode” or “calcium export mode”, Ca^2+ is transported out of the cell and Na^+ is transported into the cell. At the other direction, named “reverse mode” or “calcium import mode”, the transport directions are vice versa. The effect of the compounds of the invention on NCX1 was determined in CHO cells stably expressing human NCX1 (gene symbol SLC8A1; cf. WO 2009/115238). The assay is based on the monitoring of intracellular Ca^2+ concentrations using a calcium-sensitive fluorescence dye which is detected by means of a FLIPR device (Fluorimetric Imaging Plate Reader, Molecular Devices).
Assay Technology—Reverse Mode
The assay is based on the monitoring of intracellular Ca^2+ concentrations using the calcium-sensitive dye Fluo-4. CHO cells expressing NCX1 were loaded with the dye by means of the acetoxymethyl ester Fluo-4 AM (Invitrogen, F14202), which is cleaved intracellularly by esterase activity to yield the charged species of free Fluo-4. After an preincubation period with the test compound, Gramicidine (Sigma, G5002) was added. Gramicidine is an ionophor for Na^+ ions mediating an increase of intracellular Na^+ ions. Consequently, intracellular Na^+ ions are exchanged against extracellular Ca^2+ ions (Ca^2+ influx, reverse mode). The intracellular elevation of Ca^2+ ions was detected by measuring the fluorescence of Fluo-4 at a wavelength of 520 nm by a FLIPR device.
Briefly, for the reverse mode transport assay 18000 cells per well were seeded into a 96 well microplate (Corning COSTAR 3904) and incubated overnight in culture medium (1× Nut Mix F12 (Ham) (Gibco, 21765-029); 10% (v/v) fetal calf serum (PAA Gold, A15-649); 450 μg/ml Geneticin (Gibco, 10131-027)). A total volume of 100 μl medium per well was used. For the preparation of the FLIPR assay, the culture medium was removed from the plates and 100 μl of dye solution (2 μM Fluo-4 AM; 0.02% (v/v) Pluronic F-127 (20%, Invitrogen, P3000MP); 0.1% (v/v) bovine albumin solution (30% (v/v), Sigma, A9205) in assay buffer (133.8 mM NaCl (Sigma, S5886); 4.7 mM KCl (Sigma, P3911); 1.25 mM MgCl2 (Merck, 1.05833.0250); 3.5 mM CaCl2 (Merck, 1.02083.0250); 5 mM glucose (Sigma, G7021); 10 mM Hepes (Sigma, H4034); 0.01% (v/v) Pluronic F-127 (5%, Sigma, P2443); 2.5 mM Probenecid (Maybridge, SB00915EB); pH 7.4)) were added into each well. The plates were incubated in the dark at room temperature for 80 min. After the incubation period, the dye solution was removed and the wells were washed with 100 μl of assay buffer. Then 80 μl of a solution of the test compound in assay buffer in different concentrations were added into the wells. The plates were incubated at 16° C. for 45 min. Meanwhile a 60 μM solution of Gramicidine in assay buffer (4° C.) was prepared and stored in the wells of a 96 well microplate (96 well microplate, polypropylene, U-shape (Greiner Bio-One, 650201)) at 4° C. until measurement was started. The fluorescence monitoring was performed at 240 measuring points with measurement intervals of 2 sec. After the fifth measuring point, 40 μl of the Gramicidine solution were added to each well of the assay plates to give a final Gramicidine concentration of 20 μM. For the determination of the IC50 values the minimal fluorescence value was subtracted from the maximal fluorescence value for all measuring points. The calculation of the IC50 values via the percentage inhibitions of Ca^2+ influx into cells (reverse mode) effected by the test compound was performed in Biost@t Speed 2.0.

Compound | IC50 [nM]
Cc1nn(C)c(C)c1CCC(=O)N[C@H]1CC[C@H](Oc2ccc3c(c2)CCC(c2ccccc2F)O3)CC1 (relative stereo) [compound 254] | 300
O=C(Cn1cncn1)N[C@H]1CC[C@H](Oc2ccc3c(c2)CCC(c2ccccc2F)O3)CC1 (relative stereo) [compound 256] | 100
Cc1ccnn1CCC(=O)N[C@H]1CC[C@H](Oc2ccc3c(c2)CCC(c2ccccc2F)O3)CC1 (relative stereo) [compound 257] | 200
Cc1c(CCC(=O)N[C@H]2CC[C@H](Oc3ccc4c(c3)CCC(c3ccccc3F)O4)CC2)cnn1C (relative stereo) [compound 258] | 200
O=C(CSC(F)(F)F)N[C@H]1CC[C@H](Oc2ccc3c(c2)CCC(c2ccccc2F)O3)CC1 (relative stereo) [compound 260] | 400
Cc1ccccc1C1CCc2cc(O[C@H]3CC[C@H](NCC(=O)O)CC3)ccc2O1 (relative stereo) [compound 271] | 800
O=C(CO)N[C@H]1CC[C@H](Oc2ccc3c(c2)CCC(c2ccccc2)O3)CC1 (relative stereo) [compound 278] | 200
N[C@H]1C[C@@H](Oc2ccc3c(c2)CCC(c2ccccc2)O3)C1 (relative stereo) [compound 306, hydrochloride] | 1600
NC1(Cc2ccccc2)CCC(Oc2ccc3c(c2)CCC(c2ccccc2)O3)CC1 (single isomer, unassigned) [compound 45, 1-Benzyl-4-(2-phenylchroman-6-yloxy)-cyclohexylamine, stereoisomeric mixture 1] | 22000
NC1(Cc2ccccc2)CCC(Oc2ccc3c(c2)CCC(c2ccccc2)O3)CC1 (single isomer, unassigned) [compound 46, 1-Benzyl-4-(2-phenylchroman-6-yloxy)-cyclohexylamine, stereoisomeric mixture 2] | 11000
O=C(CCn1cccn1)N[C@H]1CC[C@H](Oc2ccc3c(c2)CCC(c2ccccc2F)O3)CC1 (single isomer, unassigned) [compound 179] | 1200
O=C(CCn1cccn1)N[C@H]1CC[C@H](Oc2ccc3c(c2)CCC(c2ccccc2F)O3)CC1 (single isomer, unassigned) [compound 253] | 300
COC(=O)CNC(=O)C1CCC(Oc2ccc3c(c2)CCC(c2ccccc2)O3)CC1 (single isomer, unassigned; stereoisomer 1) [compound 91, Methyl 2-{[cis-4-(2-phenylchroman-6-yloxy)cyclohexanecarbonyl]amino}acetate,stereoisomer 1 (2)] | 400
CCn1nccc1CNC(=O)C1CCC(Oc2ccc3c(c2)CCC(c2ccccc2)O3)CC1 (single isomer, unassigned; stereoisomer 1) [compound 93, N-(2-Ethyl-2H-pyrazol-3-ylmethyl)-[cis-4-(2-phenylchroman-6-yloxy)]-cyclohexanecarboxamide, stereoisomer 1 (2)] | 300
Cc1nc(CNC(=O)[C@H]2CC[C@@H](Oc3ccc4c(c3)CCC(c3ccccc3)O4)CC2)no1 (single isomer, unassigned; stereoisomer 1) [compound 95, N-(5-Methyl-[1,2,4]oxadiazol-3-ylmethyl)-[4-cis-(2-phenylchroman-6-yloxy)]-cyclohexanecarboxamide, stereoisomer 1 (2)] | 200
COC(=O)CNC(=O)C1CCC(Oc2ccc3c(c2)CCC(c2ccccc2)O3)CC1 (single isomer, unassigned; stereoisomer 2) [compound 92, Methyl 2-[[cis-4-[2-phenylchroman-6-yloxy]cyclohexanecarbonyl]amino]acetate,stereoisomer 2 (2)] | 100
CCn1nccc1CNC(=O)C1CCC(Oc2ccc3c(c2)CCC(c2ccccc2)O3)CC1 (single isomer, unassigned; stereoisomer 2) [compound 94, N-(2-Ethyl-2H-pyrazol-3-ylmethyl)-[cis-4-(2-phenylchroman-6-yloxy)]-cyclohexanecarboxamide, stereoisomer 2 (2)] | 1600
Cc1nc(CNC(=O)[C@H]2CC[C@@H](Oc3ccc4c(c3)CCC(c3ccccc3)O4)CC2)no1 (single isomer, unassigned; stereoisomer 2) [compound 96, N-(5-Methyl-[1,2,4]oxadiazol-3-ylmethyl)-[4-cis-(2-phenylchroman-6-yloxy)]-cyclohexanecarboxamide, stereoisomer 2 (2)] | 400
N[C@H]1CC[C@H](Oc2ccc3c(c2)CCC(c2ccccc2)O3)CC1 (stereo partly drawn) [compound 5, trans-4-(2-Phenylchroman-6-yloxy)cyclohexylamine] | 300
N[C@H]1CC[C@H](Oc2ccc3c(c2)CC[C@H](c2ccccc2)O3)CC1 [compound 9, hydrochloride] | 300
N[C@H]1CC[C@H](Oc2ccc3c(c2)CC[C@@H](c2ccccc2)O3)CC1 [compound 10, hydrochloride] | 300
CCC(N)C1(CC)CCC(Oc2ccc3c(c2)CCC(c2ccccc2)O3)CC1 (stereo not shown) [compound 11, hydrochloride] | 2800
NCC(=O)NC1CCC(Oc2ccc3c(c2)CCC(c2ccccc2)O3)CC1 (stereo not shown) [compound 12, hydrochloride] | 200

Continued, values first:

IC50 [nM] | Compound
5000 | O=C(N[C@H]1CC[C@H](Oc2ccc3c(c2)CCC(c2ccccc2F)O3)CC1)C1CC1(F)F (relative stereo) [compound 251]
300 | O=C(CC1CC1)N[C@H]1CC[C@H](Oc2ccc3c(c2)CCC(c2ccccc2F)O3)CC1 (relative stereo) [compound 252]
100 | CS(=O)(=O)CCC(=O)N[C@H]1CC[C@H](Oc2ccc3c(c2)CCC(c2ccccc2F)O3)CC1 (relative stereo) [compound 259]
300 | Cc1cc(C(=O)N[C@H]2CC[C@H](Oc3ccc4c(c3)CCC(c3ccccc3F)O4)CC2)n[nH]1 (relative stereo) [compound 261]
400 | Cc1ccccc1C1CCc2cc(O[C@H]3CC[C@@H](C(=O)Nc4ccccn4)CC3)ccc2O1 (relative stereo) [compound 265]
300 | Cc1ccccc1C1CCc2cc(O[C@H]3CC[C@H](C(=O)Nc4ccccn4)CC3)ccc2O1 (relative stereo) [compound 266]
500 | Cc1c(F)cccc1C1CCc2cc(OC3CCC(C(=O)NC4CCCCC4O)CC3)ccc2O1 (single isomer, unassigned) [compound 285]
500 | Cc1c(F)cccc1C1CCc2cc(OC3CCC(C(=O)NC4CCCCC4O)CC3)ccc2O1 (single isomer, unassigned) [compound 286]
100 | Cc1c(F)cccc1C1CCc2cc(OC3CCC(C(=O)NC4CCCCC4O)CC3)ccc2O1 (single isomer, unassigned) [compound 287]
700 | Cc1c(F)cccc1C1CCc2cc(OC3CCC(C(=O)NC4CCCC4O)CC3)ccc2O1 (single isomer, unassigned; stereoisomer 1) [compound 279, 4-[2-(3-Fluoro-2-methyl-phenyl)chroman-6-yloxy]-N-(2-hydroxycyclopentyl)cyclohexane-carboxamide, stereoisomer 1 (2)]
100 | Cc1c(F)cccc1C1CCc2cc(OC3CCC(C(=O)NC4CCCC4O)CC3)ccc2O1 (single isomer, unassigned; stereoisomer 2) [compound 280, 4-[2-(3-Fluoro-2-methyl-phenyl)chroman-6-yloxy]-N-(2-hydroxycyclopentyl)cyclohexane-carboxamide, stereoisomer 2 (2)]
